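Step 1: Grow cells in 96-well plates. Step 2: Expose to compound for 48 hours at 5 concentrations. Step 3: Interpolate endpoints linearly; if unreached, use highest concentration. GI50 is the concentration that inhibits growth by half.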 The source made the active and inactive calls. Cut-off read from the data, not from the text of the source: active = GI50 up to about 1.1 µM and inactive = higher.
Legend:
Assay in all cases: growth of human tumour cells (NCI), 48 h
[1] = test system: SF-295
[2] = test system: LOX IMVI
[3] = test system: NCI/ADR-RES
[4] = test system: OVCAR-8
[5] = test system: MOLT-4
[6] = test system: HOP-62
[7] = test system: HL-60
[8] = test system: NCI-H23
[9] = test system: U-251
[10] = test system: CAKI-1
[11] = test system: SK-MEL-5
[12] = test system: MDA-MB-435
[13] = test system: SN12C
[14] = test system: TK-10
[15] = test system: SF-268
[16] = test system: OVCAR-4
[17] = test system: CCRF-CEM
[18] = test system: A498
[19] = test system: HOP-92

Measured: GI50

C=CCNC(=S)N/C=C(/C(C)=O)C(=O)Nc1ccccc1C
inactive: [1] > 100 µM | [2] > 100 µM | [3] > 100 µM | [4] > 100 µM | [5] > 100 µM | [6] > 100 µM | [7] > 100 µM | [8] > 100 µM | [9] > 100 µM | [10] > 100 µM | [11] > 100 µM | [12] > 100 µM | [13] > 100 µM | [14] > 100 µM | [15] > 100 µM | [16] > 100 µM

COc1ccc(-[n+]2nc(S(=O)(=O)O)c(/C=C/c3ccc(N(C)C)cc3)cc2C#N)cc1
inactive: [1] > 100 µM | [2] > 100 µM | [3] > 100 µM | [4] > 100 µM | [5] > 100 µM | [6] > 100 µM | [17] > 100 µM | [18] > 100 µM | [8] > 100 µM | [9] > 100 µM | [19] > 100 µM | [10] > 100 µM | [11] > 100 µM | [12] > 100 µM | [13] > 100 µM | [14] > 100 µM | [15] > 100 µM | [16] > 100 µM

c1ccc(CCNc2ccccn2)nc1
inactive: [1] > 100 µM | [2] > 100 µM | [3] > 100 µM | [4] > 100 µM | [6] > 100 µM | [17] > 100 µM | [18] > 100 µM | [7] > 100 µM | [8] > 100 µM | [9] > 100 µM | [19] > 100 µM | [10] > 100 µM | [11] > 100 µM | [12] > 100 µM | [13] > 100 µM | [14] > 100 µM | [15] > 100 µM | [16] > 100 µM

CCOC(=O)c1cnc(-n2[nH]c(C)c(CCO)c2=O)[nH]c1=O
inactive: [1] > 100 µM | [2] > 100 µM | [3] > 100 µM | [4] > 100 µM | [5] > 100 µM | [6] > 100 µM | [17] > 100 µM | [7] > 100 µM | [8] > 100 µM | [9] > 100 µM | [19] > 100 µM | [10] > 100 µM | [11] > 100 µM | [12] > 100 µM | [13] > 100 µM | [14] > 100 µM | [15] > 100 µM | [16] > 100 µM

[O-][S+](c1ccc(Cl)cc1)c1ccccc1C1=NCCN1 (configuration not stated)
inactive: [1] > 100 µM | [3] > 100 µM | [4] > 100 µM | [5] > 100 µM | [6] > 100 µM | [17] > 100 µM | [7] > 100 µM | [8] > 100 µM | [9] > 100 µM | [10] > 100 µM | [11] > 100 µM | [12] > 100 µM | [13] > 100 µM | [14] > 100 µM | [15] > 100 µM | [16] > 100 µM

O=C1c2ccccc2-c2c1c(-c1cccc(Br)c1)nc1ccc3ccccc3c21
inactive: [1] > 100 µM | [2] > 100 µM | [3] > 100 µM | [4] > 100 µM | [5] > 100 µM | [6] > 100 µM | [17] > 100 µM | [18] > 100 µM | [8] > 100 µM | [9] > 100 µM | [10] > 100 µM | [12] > 100 µM | [13] > 100 µM | [15] > 100 µM | [16] > 100 µM

COc1ccc(-c2nc(SCC(=O)N/N=C/c3ccc(O)c(OC)c3)[nH]c2-c2ccc(OC)cc2)cc1
inactive: [1] 20.2 µM | [2] 22.8 µM | [3] 31.8 µM | [4] 28.9 µM | [6] 24.6 µM | [17] 3.44 µM | [18] 18.8 µM | [7] 11.2 µM | [8] 21.9 µM | [9] 19.7 µM | [19] 23.7 µM | [10] 54.3 µM | [11] 17.7 µM | [12] 32.4 µM | [13] 19.1 µM | [14] 41 µM | [15] 54.6 µM | [16] 40.9 µM

CCOC(=O)c1ccc2c(c1)Cc1cc([N+](=O)[O-])ccc1-2
inactive: [1] 23.1 µM | [2] 41.2 µM | [3] 25.1 µM | [4] 42 µM | [5] 20.1 µM | [6] > 100 µM | [17] 61.2 µM | [18] 28.4 µM | [7] 76.2 µM | [8] 32.4 µM | [9] 39.4 µM | [19] 26.1 µM | [10] 36.6 µM | [11] 17.3 µM | [12] 43.1 µM | [13] 89.3 µM | [14] 24.4 µM | [15] 24 µM | [16] 15.7 µM

CS(=O)(=O)c1nc(-c2cc3c(c(S(C)(=O)=O)n2)CCCC3)cc2c1CCCCC2
inactive: [1] > 100 µM | [3] > 100 µM | [4] 32.5 µM | [6] 31.6 µM | [17] > 100 µM | [7] > 100 µM | [8] > 100 µM | [9] > 100 µM | [10] 59.3 µM | [11] > 100 µM | [12] > 100 µM | [13] > 100 µM | [14] > 100 µM | [15] 16.8 µM | [16] > 100 µM

Cc1cn(CCCCCCC2=NCCCN2)c(=O)[nH]c1=O
inactive: [1] > 100 µM | [2] > 100 µM | [3] > 100 µM | [4] > 100 µM | [5] > 100 µM | [6] > 100 µM | [17] > 100 µM | [18] > 100 µM | [8] > 100 µM | [9] > 100 µM | [19] > 100 µM | [10] > 100 µM | [11] > 100 µM | [12] > 100 µM | [13] > 100 µM | [14] > 100 µM | [15] > 100 µM | [16] > 100 µM

COCN1C(=O)[C@@H]2CCCN2C(=O)c2cc(OC)c(Cc3ccccc3)cc21
inactive: [1] > 100 µM | [2] > 100 µM | [3] > 100 µM | [4] > 100 µM | [6] > 100 µM | [18] > 100 µM | [8] > 100 µM | [9] 94.6 µM | [10] > 100 µM | [12] 70.1 µM | [13] > 100 µM | [14] > 100 µM | [15] > 100 µM | [16] 43.7 µM

C/C=C1\C(=O)OC2CCN3CCC(COC(=O)C(C)(O)C(C)C1O)C23 (configuration not stated)
inactive: [1] > 100 µM | [2] > 100 µM | [3] > 100 µM | [4] > 100 µM | [5] > 100 µM | [18] > 100 µM | [7] > 100 µM | [8] > 100 µM | [9] > 100 µM | [19] > 100 µM | [10] > 100 µM | [11] > 100 µM | [12] > 100 µM | [13] > 100 µM | [14] > 100 µM | [15] > 100 µM | [16] > 100 µM

Source: ChEMBL document CHEMBL1201862, “PubChem BioAssay data set” (2004)
